Reference: patent US8309556B2, “Use of compounds derived from pyrimidinetrione as acetyl cholinesterase inhibitors, compositions containing said derivatives, and the uses thereof” (priority 2005, dated 2012)
pIC50: −log10 of the molar value. Like-named read-outs stand apart in the source and are kept apart here.

How the values were obtained:
[1] = biological target: T1, AChE1 activity of extracts of Culex pipiens larvae sensitive to propoxur (normal AChE) (Culex pipiens, UniProt Q86GC8); assay: Inhibition of AChE1 activity in extracts of propoxur-sensitive mosquito larvae; assay type: biochemical
T1 construct: from tissue; host or cells: whole larvae of propoxur-sensitive Culex pipiens, Triton X100 homogenate supernatant
Experimental: (§1) The inhibitory properties of the compounds of the preceding table I are tested with regard to the AChE activity by either using a normal or G119S-mutated recombinant AChE or using extracts of larvae of mosquitoes which are sensitive (carrying normal AChE) or resistant (carrying G119S-mutated AChE) to organophosphorus compounds and carbamates.
(§2) The AChE activity is measured using the method described by Bourguet et al., Pest Biochem. Physiol., 1996, 55, 122-128, and which refers to the spectroscopic method described by Ellman G. L. et al. (Biochem. Pharmacol., 1961, 7, 88-95) using acetylthiocholine as substrate.
(§3) Larvae of Culex pipiens mosquitoes which are sensitive or resistant to propoxur are milled in 400 μl of 0.25M phosphate buffer comprising 1% Triton X100. The homogenates are centrifuged at 10 000 rpm for 3 minutes.
(§4) The effectiveness of the various compounds with regard to the resistant larvae, relative to the sensitive larvae, is estimated by the sensitive/resistant ratio.

[2] = biological target: T2, normal recombinant Culex pipiens AChE1 (Culex pipiens, UniProt Q86GC8); assay: Inhibition of normal recombinant AChE1 (lysates of transfected Drosophile S2 cells, Ellman method); assay type: biochemical
T2 construct: made in house; host or cells: Drosophila S2 cells (crude lysate supernatant)
Experimental: as §1, §2
(§5) The inhibitory properties of the compounds according to the invention with regard to the activity of a G119S-mutated or normal recombinant Culex pipiens AChE1 are tested according to protocol described by Weill et al., Nature, 2003, 423, 136-137.
(§6) Each compound according to the invention is tested at different concentrations on lysates of Drosophile S2 cells transfected with an empty expression vector or an expression vector expressing normal or mutated AChE1. After expression, the cells are centrifuged for 15 minutes at 14 000 rpm and are subsequently lysed in a 0.25 M phosphate buffer comprising 1% Triton X100.
(§7) 100 μl of supernatant originating from the centrifuging of the cell lysates at 10 000 rpm for 3 minutes are incubated for 15 minutes with 10 μl of each compound according to the invention at various concentrations.
(§8) The effectiveness of the various compounds with regard to the mutated AChE activity, relative to that of the normal AChE, is estimated by the sensitive/insensitive ratio.

[3] = test system: larvae of mosquitoes Culex pipiens sensitive to propoxur; assay: Insecticidal activity: larval mortality, propoxur-sensitive larvae; assay type: in vivo; details: stage-4 larvae, mortality after 24 hours, log-Probit, read-out: LD50, Sensitive larvae
Experimental: (§9) The insecticidal activity of the compounds according to the invention denoted in table IV below is tested on larvae of mosquitoes Culex pipiens sensitive or resistant to the action of propoxur.
(§10) The larvae resistant or sensitive to propoxur are incubated in 24-well plates, at the rate of 15 stage-4 larvae per well, in 1 ml of tap water comprising different concentrations of compounds ranging from 0.31 to 50 μg/ml.
(§11) Larval mortality is measured after incubating for 24 hours. […] Cahiers ORSTOM, série Entomologie médicale et Parasitologie, 23(2), 117-121; Raymond, M., Prato, G. and Ratsira, D. (1993). PROBIT, CNRS-UMII, Licence L93019. Avenix, 34680 St. Georges d'Orques, France.), the homogeneity of the dose/response being tested. The effectiveness of the different compounds with regard to the resistant larvae, relative to the sensitive larvae, is estimated by the sensitive/resistant ratio.

[4] = test system: G119S-mutated recombinant Culex pipiens AChE1; assay: biochemical; details: IC50 normal AChE1 relative to mutated AChE1, recombinant
Experimental: as §1, §2, §5, §6, §7, §8

[5] = biological target: T3, G119S-mutated recombinant Culex pipiens AChE1 (Culex pipiens, UniProt Q86GC8, G247S); assay: biochemical
T3 construct: made in house; host or cells: Drosophila S2 cells (crude lysate supernatant)
Experimental: as §1, §2, §5, §6, §7, §8

[6] = biological target: T4, AChE1 activity of extracts of Culex pipiens larvae resistant to propoxur (G119S-mutated AChE) (Culex pipiens, UniProt Q86GC8, G247S); assay: biochemical
T4 construct: from tissue; host or cells: whole larvae of propoxur-resistant Culex pipiens, Triton X100 homogenate supernatant
Experimental: as §1, §2, §3, §4

[7] = test system: AChE1 activity of extracts of Culex pipiens larvae resistant to propoxur (G119S-mutated AChE); assay: biochemical; details: IC50 on larval extracts, sensitive relative to resistant
Experimental: as §1, §2, §3, §4

[8] = test system: larvae of mosquitoes Culex pipiens resistant to propoxur; assay: Insecticidal activity: larval mortality, propoxur-resistant larvae; assay type: in vivo; details: for LC50: Culex pipiens, stage-4 larvae, mortality after 24 hours, log-Probit, read-out: LD50, Resistant larvae; for Sensitive/resistant ratio: LD50 larval mortality, sensitive relative to resistant
Experimental: as §9, §10, §11

[9] = extracts of propoxur-sensitive larvae, 15 minutes incubation, read-out: IC50, Sensitive larvae

Cc1ccc(C=C2C(=O)NC(=O)N(c3ccc(Cl)cc3)C2=O)o1 [(6), 1-(4-chlorophenyl)-5-[(5-methyl-2-furyl)methylene]-2,4,6(1H,3H,5H)-pyrimidinetrione]
pIC50 [1, 9]: 3.48
pIC50 [2]: 4.15
LC50 [3]: 762 µM
Sensitive/insensitive ratio [4]: 1.63
pIC50 [5]: 4.37
pIC50 [6]: 4.57
Sensitive/resistant ratio [7]: 12.0
LC50 [8]: 192 µM
Sensitive/resistant ratio [8]: 4.0

C=CCN1C(=O)C(=Cc2ccc(C)o2)C(=O)NC1=S [(8), 1-allyl-5-[(5-methyl-2-furyl)methylene]-2-thioxodihydro-4,6(1H,5H)-pyrimidinetrione]
pIC50 [1, 9]: 4.04
pIC50 [2]: 4.21
LC50 [3]: 223 µM
Sensitive/insensitive ratio [4]: 2.08
pIC50 [5]: 4.54
pIC50 [6]: 4.29
Sensitive/resistant ratio [7]: 1.8
LC50 [8]: 123 µM
Sensitive/resistant ratio [8]: 1.8

CNC(=O)Oc1ccccc1OC(C)C [Propoxur, propoxur, reference compound]
pIC50 [1]: 5.31
pIC50 [2]: 5.05
LC50 [3]: 1.7 µM
Sensitive/insensitive ratio [4]: 0.0014
pIC50 [5]: 2.20
pIC50 [6]: 1.50
Sensitive/resistant ratio [7]: 0.00015
LC50 [8]: 2700 µM
Sensitive/resistant ratio [8]: 0.00063
